Legend:
mice with ischemic AKI [1] = test: renal ischemia-reperfusion injury model: renal function (serum creatinine, NGAL, KIM-1); format: in vivo; conditions: IRI-30 min, 3 doses of 5 mg/kg, 24 hours reperfusion
Method: (§1) Mice were anesthetized with isoflurane using a vaporizer and placed on a heating pad to maintain their body temperature at 37° C. Both renal arteries were identified through dorsal incisions and clamped for 20, 30, 35, or 37 minutes. Reperfusion was confirmed visually upon release of the clamps. Surgical wounds were closed, and mice were administered 1 mL of saline i.p. The mice were kept in a warm incubator until they regained consciousness and were allowed to recover with ad libitum access to food and water. […] Serum and kidney tissue were collected 24 hours after renal IRI.
Renal function was assessed by determining the serum levels of creatinine (KB02-H1; Arbor Assays), Lipocalin-2 (NGAL; MLCN20; R&D Systems), and kidney injury molecule-1 (KIM-1; MKM100; R&D Systems) after reperfusion for 24 h.

[2] = stability on incubation with human liver extracts; format: in vitro ADME
mice = test: toxicity after IP injection into mice; conditions: IP into mice at 50 mg/kg body weight
[3] = chemical stability in aqueous solutions; format: physicochemical; conditions: over broad pH range
[4] = test system: PGE2 production by cell lines; test: PGE2 production by cell lines; format: cell-based
[5] = stability on incubation with rat liver extracts; format: in vitro ADME
[6] = stability on incubation with mouse liver extracts; format: in vitro ADME
recombinant 15-PGDH = molecular target: T1, recombinant 15-PGDH (Homo sapiens, UniProt P15428); test: inhibition of recombinant 15-PGDH; format: biochemical
T1 sequence (P15428 1-266): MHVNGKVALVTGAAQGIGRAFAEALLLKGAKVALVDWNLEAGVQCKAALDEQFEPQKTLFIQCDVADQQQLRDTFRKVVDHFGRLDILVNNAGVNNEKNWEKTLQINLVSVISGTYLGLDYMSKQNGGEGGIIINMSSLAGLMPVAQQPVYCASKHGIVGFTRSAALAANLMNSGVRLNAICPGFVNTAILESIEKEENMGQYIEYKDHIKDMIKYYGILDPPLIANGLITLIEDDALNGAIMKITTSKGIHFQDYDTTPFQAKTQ

[7] = test system: PGE2 receptors (EP1, EP2, EP3 and EP4) and adenosine receptor (A2A); test: renal IRI model: PGE2 receptors (EP1-EP4) and adenosine A2A receptor levels; format: in vivo, mice; conditions: kidney tissue, IRI mice
Method: as §1
PGE2 receptors (EP1, EP2, EP3 and EP4) and adenosine receptor (A2A) mRNA levels were determined by real-time PCR with SYBR green PCR Master Mix and the primers listed in Table 1. Their protein levels were determined by western blotting assay and immunofluorescence analysis.

mice with ischemic AKI [8] = test: renal IRI model: necrotic and apoptotic cell death in the outer medulla; format: in vivo
Method: as §1
To evaluate necrosis, 5-μm-thick paraffin sections were stained with H&E. Tubular injury was scored semi quantitatively according to a scoring system by a pathologist who examined at least 20 separate fields (×400) in the outer medulla, which is the zone most sensitive to ischemic injury. The scoring system was as follows: 0, no damage; 1, patchy isolated unicellular necrosis; 2, tubular necrosis <25%; 3, tubular necrosis 25-50%; and 4, tubular necrosis >50%. At least 20 consecutive high-power fields (magnification, ×400) per section were scored by two operators blind to the details of the experiment. To analyze the frequency of apoptosis, 5-μm-thick paraffin sections were subjected to terminal deoxynucleotidyl transferase-mediated dUTP nick-end labeling (TUNEL) assay (APT110; Millipore) according to the manufacturer's protocol. TUNEL-positive cells were counted in at least five separate fields (×640 magnification) in the outer medulla, and the apoptosis index (%, number of apoptosis cells/total number of cells) was calculated using GENASIS software.

mice with ischemic AKI [9] = test: survival and body weight over 7 days after renal IRI; format: in vivo; conditions: bilateral IRI 30 minutes, 5 mg/kg i.p. before and twice daily over 7 days, POD7
Method: (A) Experimental setup for toxicity. Ischemic AKI induced by bilaterally clamping the renal arteries for 30 minutes, followed by reperfusion. […] (n=10 per group). (B, C) Survival curves and body weight over 7 days. Kaplan-Meier analysis of survival stratified by AKI stage. Data are means±SEM. *P<0.05 vs. corresponding BI30_vehicle.

[10] = test system: renal arterioles in the outer medulla; test: renal vasodilatation in the outer medulla (α-SMA-positive arteriole area); format: in vivo, mice; conditions: IRI mice; α-SMA staining
Method: as §1
To quantify vasodilation, the inner arteriole area of the outer medulla was determined using α-SMA-stained sections. After counterstaining with Mayer's hematoxylin, the inner area of α-SMA-positive vessels in the outer medulla (×25) was measured using ImageJ. The results are expressed as average areas of renal arteries outer medulla.

[11] = test system: HMGB1 and proinflammatory cytokines; test: renal IRI model: HMGB1 and cytokine levels; format: in vivo; conditions: mice, 3 doses 5 mg/kg
Method: as §1
Inflammatory cytokine mRNA and protein levels were measured by real-time PCR and ELISA, respectively. Kidney tissue and serum were harvested after reperfusion for 24 h. Total RNA was extracted from frozen kidney tissue using TRIzol reagent (15596018; Invitrogen), according to the manufacturer's protocol. RNA was converted to cDNA using oligo-dT primers. IL-17, TNF-α, and […] levels were determined by real-time PCR with SYBR green PCR Master Mix and the primers listed in Table 1. For ELISA, frozen kidney tissues were homogenized in phosphate buffer. Serum IL-17 (M1700; R&D Systems), TNF-α (MTAOOB; R&D Systems), and IL-10β (MLBOOC; R&D Systems) were measured using commercial ELISA kits according to the manufacturer's instructions.

## CCCCC[C@H](O)/C=C/[C@H]1[C@H](O)CC(=O)[C@@H]1CCCCCCC(=O)O [PGE1, reference compound]
Mice with ischemic AKI [1]
  renal protection from IRI (serum NGAL, creatinine, KIM-1): less effective for renal protection

## CCCCC[C@H](O)/C=C/[C@H]1[C@H](O)CC(=O)[C@@H]1C/C=C\CCCC(=O)O [PGE2, reference compound]
Mice with ischemic AKI [1]
  renal protection from IRI (serum NGAL, creatinine, KIM-1): less effective for renal protection

## CCCC[S+]([O-])c1sc2nc(-c3nccs3)cc(-c3cnc(C)n3C)c2c1N (stereo not drawn) [formula (VII)]
[2]
  chemical stability when incubated with human liver extracts: chemically stable
mice
  immediate toxicity over 24 hours: no immediate toxicity
[3]
  chemical stability in aqueous solutions: chemically stable
[4]
  concentration at which PGE2 production by cell lines is increased: 20 nM
[5]
  chemical stability when incubated with rat liver extracts: chemically stable
[6]
  chemical stability when incubated with mouse liver extracts: chemically stable
Recombinant 15-PGDH
  concentration at which recombinant 15-PGDH is inhibited: 3 nM

## COc1ccc2c(c1)c(CC(=O)O)c(C)n2C(=O)c1ccc(Cl)cc1 [indomethacin, reference compound]
[7]
  EP4 mRNA: reduced
  increase of levels of mRNA for EP1: 40%
Mice with ischemic AKI [8]; 3 doses 5 mg/kg i.p., POD1, vs IRI-vehicle
  tissue congestion in the outer medulla (gross pathology): worsened
Mice with ischemic AKI [8]; 3 doses 5 mg/kg, POD1
  renal injury (histopathology, tubular injury): further exacerbated renal injury
Mice with ischemic AKI [1]
  renal protection from IRI (serum NGAL, creatinine, KIM-1): significantly aggravated IRI
Mice with ischemic AKI [9]
  reduced survival vs vehicle control: 25%
[10]
  renal arteriole area in the outer medulla: significantly decreased
[11]
  induction of inflammatory cytokines: increased induction of inflammatory cytokines
[11]; kidney tissue, western blot
  increase of HMGB1 compared to the IRI-vehicle group: 50%

Reference: patent publication US20250325524A1, “COMPOSITIONS AND METHODS FOR TREATING RENAL INJURY” (CASE WESTERN RESERVE UNIVERSITY, priority 2018, published 2025)
